The values below come from PMC3384297 (2012).

Experiment in all cases: FRET melting
Experiment [1] concerns F21D (DNA, G4) GGGTTAGGGTTAGGGTTAGGG
Particulars: 5 mM K+, 95 mM Li+; 10 mM lithium cacodylate pH 7.2; 0.2 µM DNA, 1 µM porphyrin.

For experiment [2], the system named is FGD (DNA, G4) GGGTGTGGGTGTGGGTGTGGG
Particulars: 5 mM K+, 95 mM Li+; 10 mM lithium cacodylate pH 7.2; 0.2 µM DNA, 1 µM porphyrin.

Experiment [3] shares this test system. Conditions: 5 mM K+, 95 mM Li+; 10 mM Li cacodylate pH 7.2; 0.2 µM DNA, 1 µM NMM.
The test system of experiment [4] is F21D (DNA, G4) GGGTTAGGGTTAGGGTTAGGG
Conditions: 5 mM K+, 95 mM Li+; 10 mM Li cacodylate pH 7.2; 0.2 µM DNA, 1 µM NMM.

As to `C[n+]1ccc(-c2c3nc(c(-c4cc[n+](C)cc4)c4ccc([nH]4)c(-c4cc[n+](C)cc4)c4nc(c(-c5cc[n+](C)cc5)c5ccc2[nH]5)C=C4)C=C3)cc1`, the ΔT1/2 came out at 34 ± 2 °C in experiment [1] and 31 ± 2 °C in experiment [2].

Regarding `CCC1=C(C)c2cc3[nH]c(cc4nc(cc5[nH]c(cc1n2)c(C)c5CC)C(C)=C4CCC(=O)O)c(CCC(=O)O)c3C`, the values for the ΔT1/2 in experiment [1] and in experiment [2] were 0.2 ± 0.3 °C and 0.8 ± 0.3 °C, respectively.

Regarding `CCc1c(C)c2cc3nc(cc4nc(cc5c(CC)c(C)c(cc1[nH]2)n5C)C(C)=C4CCC(=O)O)C(CCC(=O)O)=C3C`, the ΔT1/2 worked out at 12.5 ± 0.3 °C in experiment [3] and 14 ± 2 °C in experiment [4].

For the compound `C[n+]1ccc(-c2c3nc(c(-c4cc[n+](C)cc4)c4ccc([n-]4)c(-c4cc[n+](C)cc4)c4nc(c(-c5cc[n+](C)cc5)c5ccc2[n-]5)C=C4)C=C3)cc1.[Zn+2]`, the results for the ΔT1/2 in experiment [1] and in experiment [2] were 23 ± 1 °C and 22.1 ± 0.9 °C, respectively.

As for `C=CC1=C(C)c2cc3[nH]c(cc4nc(cc5[nH]c(cc1n2)c(C)c5CCC(=O)O)C(CCC(=O)O)=C4C)c(C)c3C=C`, the ΔT1/2 in experiment [1] and in experiment [2] was 0.2 ± 0.3 °C in each case.

Turning to `C=Cc1c(C)c2cc3c(C=C)c(C)c(cc4nc(cc5nc(cc1[nH]2)C(C)=C5CCC(=O)O)C(CCC(=O)O)=C4C)n3C`, the ΔT1/2 was 8.5 ± 0.6 °C in experiment [1] and 9.8 ± 0.3 °C in experiment [2].
